Data set [1] deals with Rat basophilic leukemia (RBL) cells. Description: LTB4 secretion assay in RBL (rat basophilic leukemia cells). Particulars: Rattus norvegicus, RBL. The class given is cell-based. Summed up: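 Cells seeded 2×10^4/well the day before, then pre-incubated 15 min at 37 °C in EMEM/0.5% FBS with compound (5 nM to 100 uM). Stimulation with 2.5 uM arachidonic acid plus 5 uM A23187 (final) for 10 min at 37 °C; LTB4 in supernatant quantified by EIA.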

The target in the next data set is T1, human 5-LOX (Homo sapiens, UniProt P09917).
T1 construct: purchased Cayman 60402; host or cells: insect cells (lysate)
T1 sequence (P09917 1-674): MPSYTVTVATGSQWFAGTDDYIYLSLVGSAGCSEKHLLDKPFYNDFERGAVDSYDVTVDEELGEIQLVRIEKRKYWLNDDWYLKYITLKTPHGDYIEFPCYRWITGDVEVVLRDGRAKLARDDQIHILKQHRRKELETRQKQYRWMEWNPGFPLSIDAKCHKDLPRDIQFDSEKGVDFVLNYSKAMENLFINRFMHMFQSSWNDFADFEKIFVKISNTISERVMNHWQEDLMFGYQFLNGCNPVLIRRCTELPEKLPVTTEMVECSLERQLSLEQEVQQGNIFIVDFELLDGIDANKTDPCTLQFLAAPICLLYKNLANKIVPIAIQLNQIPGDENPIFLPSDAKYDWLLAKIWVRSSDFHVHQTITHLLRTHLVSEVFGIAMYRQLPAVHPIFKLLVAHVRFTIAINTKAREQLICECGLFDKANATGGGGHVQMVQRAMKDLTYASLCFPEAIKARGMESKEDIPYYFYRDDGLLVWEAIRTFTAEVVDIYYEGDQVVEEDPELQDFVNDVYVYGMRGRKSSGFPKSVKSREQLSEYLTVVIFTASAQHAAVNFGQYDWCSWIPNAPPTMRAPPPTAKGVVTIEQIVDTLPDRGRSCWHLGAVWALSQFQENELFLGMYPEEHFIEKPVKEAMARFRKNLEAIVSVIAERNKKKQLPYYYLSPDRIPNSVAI
Nature of the data set: 5-LOX enzyme activity, fluorescence method (5-HPETE, H2DCFDA). The data set is classed as biochemical. Particulars: read-out: 5-LO (IC50). Summed up: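 Compound (0.5 nM to 10 uM) pre-incubated 5 min with enzyme; reaction started with ATP (100 uM final) and arachidonic acid (3 uM final). All steps at room temperature, fluorescence read-out.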

Another data set relates to Rat whole blood (RWB). Description: LTB4 secretion assay in RWB (rat whole blood). The class given is cell-based. Particulars: Rattus norvegicus. Summed up: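 Heparinized blood from male Sprague Dawley rats (6-9 weeks) diluted 1:1 in RPMI, pre-incubated 15 min at 37 °C with compound (2.5 nM to 50 uM). Stimulated with 10 uM calcium ionophore A23187 for 10 min at 37 °C, stopped with ice-cold PBS; LTB4 in supernatant quantified by EIA.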

For another data set, the system named is HeLa S3 cells. Description: PGE2 inhibition assay (HTRF) in TNF-α stimulated HeLa S3 cells. The data set is classed as cell-based. The following applies: Homo sapiens; PGE2, 10 uM compound, HeLa S3 stimulated with TNF-α. The procedure:
Human epitheloid cervix carcinoma HeLa S3 cells (2×10^6cells/ml) were seeded with modified F-12K buffer medium pH 7.4 in tissue culture plate and incubated for overnight at 37° C. and 5% CO2. Then medium was changed into new medium contained 10 uM testing compounds or 0.1% DMSO and incubated overnight. After incubation, cells were stimulated with 30 nM TNF-α (Tumor necrosis factor-α) for 16 h. For determination of PGE2, the supernatant was measured by PGE2 HTRF (Homogeneous Time Resolved Fluorescence) assay kit Inhibition of PGE2 by compounds is calculated as a percentage of activity in the presence of drug versus the activity in the stimulator TNF-α.
Background: Time-resolved FRET reads energy transfer from a long-lived donor to a nearby acceptor.

Data set [2] addresses T2, Human recombinant cyclooxygenase-2 (Homo sapiens, UniProt P35354).
T2 construct: host or cells: insect Sf21 cells
T2 sequence (P35354 18-604): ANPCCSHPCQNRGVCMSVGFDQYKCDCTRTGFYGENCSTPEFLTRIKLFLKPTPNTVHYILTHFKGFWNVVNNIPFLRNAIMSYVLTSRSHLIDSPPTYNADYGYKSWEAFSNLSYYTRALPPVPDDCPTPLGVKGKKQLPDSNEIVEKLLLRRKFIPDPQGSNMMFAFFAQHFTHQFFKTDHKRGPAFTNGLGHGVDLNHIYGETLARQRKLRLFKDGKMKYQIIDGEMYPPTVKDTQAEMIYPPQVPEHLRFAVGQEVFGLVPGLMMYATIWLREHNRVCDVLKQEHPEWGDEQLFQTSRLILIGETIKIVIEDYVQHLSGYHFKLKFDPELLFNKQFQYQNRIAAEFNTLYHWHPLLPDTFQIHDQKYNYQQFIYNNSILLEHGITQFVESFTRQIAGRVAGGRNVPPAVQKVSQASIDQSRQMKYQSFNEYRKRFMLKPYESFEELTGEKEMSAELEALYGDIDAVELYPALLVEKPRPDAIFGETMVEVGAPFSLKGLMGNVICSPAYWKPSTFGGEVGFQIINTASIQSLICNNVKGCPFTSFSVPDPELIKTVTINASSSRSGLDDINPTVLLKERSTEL
Nature of the data set: COX-2 inhibition assay (EIA). The class given is biochemical. Particulars: for inhibition at 10 µM: COX-2, 10 uM compound; for inhibitory effect on cyclooxygenase-2 (COX-2): tested at 10 uM. The procedure:
Human recombinant cyclooxygenase-2 expressed in insect Sf21 cells was used. The testing compounds and reference compound (Rofecoxib) were dissolved in DMSO (Sigma, USA) and tested at 10 uM. Test samples were pre-incubated with 0.11 U enzyme in 100 mM modified Tris-HCl buffer pH 7.7 for 15 minutes at 37° C. The reactions were initiated by addition of 0.3 μM arachidonic acid for another 5-minute incubation period, then terminated by further addition of 1 N HCl. An aliquot was then combined with the EIA kit for spectrophotometric determination of the quantity of PGE2 formed. Inhibition % was determined by compared with relative amounts of PGE2 induced by arachidonic acid.

Usually EC50 stands for the midpoint of the concentration-response curve. Read a low EC50 as greater potency. The term melting point denotes the temperature of the solid-liquid transition. Broadly, the IC50 is the concentration at which inhibition is half-maximal. The inhibition is the relative decrease from the control value, in per cent.

SMILES strings stand for the structures.

Regarding `CN(C)c1nc2ccc(N)cc2n1CCOc1ccc(OC(F)(F)F)cc1` [Compound 44], the melting point was greater than 133 °C. Also, in data set [1], the EC50 is less than 10 µM. For the same molecule, the half-maximal inhibitory concentration (IC50) at human 5-LOX was less than 1 µM. Besides, in the data set on Rat whole blood (RWB), the EC50 was greater than 20 µM. Besides, the inhibition at 10 µM with HeLa S3 cells lay in the range of 40 to 70%.
Take `Nc1ccc2[nH]c(NCc3ccc(Oc4ccc(Cl)cc4)cc3)nc2c1` [Compound 86]: the EC50 (in data set [1]; in the data set with Rat whole blood (RWB)) was less than 10 µM throughout. Besides, on human 5-LOX, the IC50 was less than 1 µM. The same molecule had an inhibition at 10 µM in the data set with HeLa S3 cells greater than 70%.
For the molecule `Nc1ccc2[nH]c(NCc3ccc(-c4ccccc4)cc3)nc2c1` [Compound 90], the melting point was greater than 200 °C. This molecule also registered an EC50 in data set [1] of less than 10 µM. Also, at human 5-LOX, the IC50 is less than 1 µM. Also, in the data set on Rat whole blood (RWB), the EC50 lay within 10 to 20 µM. For the same molecule, the inhibition at 10 µM in the data set with HeLa S3 cells was greater than 70%. In data set [2], the inhibition at 10 µM was less than 1% and the “inhibitory effect on cyclooxygenase-2 (COX-2)” value is reported as “do not have an inhibitory effect”.
`Nc1ccc2[nH]c(NCc3cccc4ccccc34)nc2c1` [Compound 91] had a melting point greater than 107.8 °C. In data set [1], this molecule registered an EC50 of less than 10 µM. For the same molecule, the half-inhibitory concentration (IC50) at human 5-LOX was less than 1 µM. In the data set with Rat whole blood (RWB), this molecule came in with an EC50 of 10 to 20 µM. In the data set with HeLa S3 cells, this molecule gave an inhibition at 10 µM greater than 70%.
As for `CC(C)Nc1ccc2[nH]c(NCc3ccc(Oc4ccccc4)cc3)nc2c1` [Compound 95], the melting point is greater than 137.5 °C. The EC50 in data set [1] was less than 10 µM. The IC50 at human 5-LOX is less than 1 µM. The molecule also registered an inhibition at 10 µM in the data set on HeLa S3 cells greater than 70%. Also, in data set [2], the inhibition at 10 µM was less than 1% and the “inhibitory effect on cyclooxygenase-2 (COX-2)” value was “do not have an inhibitory effect”.
Take `FC(F)(F)Oc1ccc(OC2CCN(c3ccc4nc(N5CCCC5)[nH]c4c3)C2)cc1` (stereo not shown) [Compound 99]: the concentration giving a half-maximal response (EC50) is less than 10 µM in data set [1] and greater than 20 µM with Rat whole blood (RWB). Besides, the IC50 at human 5-LOX is less than 1 µM. In the data set with HeLa S3 cells, the inhibition at 10 µM was greater than 70%.
The matching figures for `Nc1ccc2[nH]c(NCc3cccc(Oc4ccccc4)c3)nc2c1` [Compound 103]: less than 10 µM, less than 10 µM, less than 1 µM and greater than 70%.
Take `Nc1ccc2nc(N)n(Cc3ccc(Oc4ccc(Cl)cn4)cc3)c2c1` [Compound 195]: the EC50 (in data set [1]; in the data set with Rat whole blood (RWB)) was less than 10 µM each time. Moreover, the IC50 on human 5-LOX was less than 1 µM. Moreover, the inhibition at 10 µM in the data set with HeLa S3 cells was less than 40%.
Regarding `Cn1c(NCc2ccc(Oc3ccc(C(F)(F)F)nc3)cc2)nc2ccc(NC3COC3)cc21` [Compound 226], the EC50 (in data set [1]; with Rat whole blood (RWB)) was less than 10 µM throughout. Further, the half-maximal inhibitory concentration (IC50) on human 5-LOX was less than 1 µM. Moreover, the inhibition at 10 µM with HeLa S3 cells was greater than 70%.

The record behind these values is patent US11447486B2, “2-amino-benzimidazole derivatives and their use as 5-lipoxygenase and/or prostaglandin E synthase inhibitors” (INSTITUT PASTEUR KOREA, priority 2014, dated 2022).
